According to patent publication US20260226055A1, “PYRAZOLE DERIVATIVES AS PHD INHIBITORS” (Oxford University Innovation Limited, priority 2023, published 2026):
pIC50: −log10 of the molar value. Read-outs that look alike come from different tables or passages of the source.

Legend:
PHD2 = PHD2 (Homo sapiens, UniProt Q9GZT9); assay: PHD2 RF-MS hydroxylation assay; format: biochemical
Protocol: In brief, cDNA encoding for the catalytic domain of tPHD2 (181-426 residues) was cloned into the pET28a(+)/pET24a(+) vectors (Novagen), to enable production of tPHD2 (residues 181-426) protein with/without an N-terminal His6-tag. The tPHD2 (residues 181-426) encoding construct was transformed into the Escherichia coli BL21 DE3 cell line; protein production was induced with 0.5 mM […] (3-5 hr at 28° C.). […] The protein was exchanged into 50 mM Tris-HCl buffer (pH 7.5) and concentrated to % 40 mg/ml.
Tris(hydroxymethyl)aminomethane was from Fisher. […] All inhibition assays were carried out in 384-well polypropylene plates (Greiner Bio-One). […] PHD2 protein was prepared at a concentration of 300 nM in assay buffer and 25 μl dispensed across each 384-well assay plate. […] After loading the C4 SPE was washed with 0.1% formic acid in water to remove non-volatile buffer salts and then peptide was eluted from the SPE with 85% acetonitrile, 15% water containing 0.1% formic acid onto the mass spectrometer. Peptide charge states were monitored in positive mode. […] IC50 values were determined from non-linear regression plots using GraphPad prism.
SAR studies for PHD2 inhibition were carried out on the compounds of the invention. Compounds were screened against PHD2 using the RF-MS hydroxylation assay.

[1] = mouse, in vivo, ip
Protocol: (§1) Values are shown pre-treatment, and 4 and 8 days after treatment.
(§2) Blood samples were taken either pre-treatment, on the 4th day into treatment or on the 8th day of treatment. Blood samples were analysed using Celltac Alpha MEK-6500K.
(§3) Samples were taken either pre-treatment, on the 4th day into treatment or on the 8th day of treatment. Blood samples were analysed using Celltac Alpha MEK-6500K.

HIF1-α in Hep3B cells = assay: Immunoblots of Hep3B cells (HIF1-α protein levels); format: cell-based; design: dose or concentration left out as unconfirmed; settings: 3 hours
Protocol: Cells were grown to 90% confluency.
Hep3B cells were treated with compounds 117, 119, 122 and 123 of the invention (Examples 93, 95, 98 and 99) at 100 µM (A) and 20 µM (B) PHD inhibitors for 3 hours.

[2] = In vivo blood counts in C57BL/6 mice; settings: twice daily IP, 8 days
Protocol: as §1, §2, §3

Chain of PHD2 (Q9GZT9 181-426): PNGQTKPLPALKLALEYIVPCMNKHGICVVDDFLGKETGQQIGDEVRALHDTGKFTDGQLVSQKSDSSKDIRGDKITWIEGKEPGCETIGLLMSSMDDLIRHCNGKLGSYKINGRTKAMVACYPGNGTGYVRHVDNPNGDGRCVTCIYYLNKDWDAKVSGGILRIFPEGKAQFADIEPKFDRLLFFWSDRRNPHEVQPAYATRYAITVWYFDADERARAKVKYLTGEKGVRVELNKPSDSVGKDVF

## O=C(NCc1ccc(-c2ccccc2)cc1)c1ccc(-n2cccn2)cc1O [Compound 16, N-([1,1′-biphenyl]-4-ylmethyl)-2-hydroxy-4-(1H-pyrazol-1-yl)benzamide]
PHD2
  pIC50: < 5.00

## O=C(NCc1ccc(-c2ccccc2)cc1)c1cnc(-n2cccn2)nc1 [Compound 20, N-([1,1′-Biphenyl]-4-ylmethyl)-2-(1H-pyrazol-1-yl)pyrimidine-5-carboxamide]
PHD2
  pIC50: < 5.00

## O=C(NCc1ccc(-c2ccccc2)cc1)c1ccc(-n2cccn2)nc1 [Compound 22, N-([1,1′-Biphenyl]-4-ylmethyl)-6-(1H-pyrazol-1-yl)nicotinamide]
PHD2
  pIC50: < 5.00

## O=C(NCC1CCCCC1)c1cnc(-n2cccn2)cc1O [Compound 44, N-(Cyclohexylmethyl)-4-hydroxy-6-(1H-pyrazol-1-yl)nicotinamide]
PHD2
  pIC50: < 5.00

## O=C(NCC1CCC(C(F)(F)F)CC1)c1cnc(-n2cccn2)cc1O (centres unmarked) [Compound 68, 4-Hydroxy-6-(1H-pyrazol-1-yl)-N-((4-(trifluoromethyl)cyclohexyl)methyl)nicotinamide]
[1]
  adverse effects: no adverse effects

## COc1cc(-n2cc(C(=O)NCc3ccc(-c4ccccc4)cc3)cn2)ncc1C#N [Compound 93]
PHD2
  pIC50: < 5.00

## N#Cc1ccc(-n2cc(C(=O)NCc3ccc(-c4ccccc4)cc3)cn2)nc1 [Compound 97]
PHD2
  pIC50: < 5.00

## O=C(O)c1ccnc(-n2cc(C(=O)NCc3ccc(-c4ccccc4)cc3)cn2)c1 [Compound 103]
PHD2
  pIC50: < 5.00

## O=C(Nc1ccc(-c2ccccc2)cc1)c1cnn(-c2cc(O)ccn2)c1 [Compound 108]
PHD2
  pIC50: < 5.00

## O=C(NCc1ccc(-c2ccccc2)cc1)c1cnc2c(cnc3ccnn32)c1O [Compound 117, N-([1,1′-Biphenyl]-4-ylmethyl)-6-hydroxypyrazolo[1,5-a]pyrido[3,2-e]pyrimidine-7-carboxamide]
HIF1-α in Hep3B cells
  HIF-1α stabilisation (immunoblot): stabilise HIF-1α

## O=C(Nc1ccc(-c2ccccc2)cc1)c1cnc2c(cnc3ccnn32)c1O [Compound 119, N-([1,1′-Biphenyl]-4-yl)-6-hydroxypyrazolo[1,5-a]pyrido[3,2-e]pyrimidine-7-carboxamide]
HIF1-α in Hep3B cells
  HIF-1α stabilisation (immunoblot): stabilise HIF-1α

## Cc1cc2nc(C)c3c(O)c(C(=O)NCc4ccc(-c5ccccc5)cc4)cnc3n2n1 [Compound 122, N-([1,1′-Biphenyl]-4-ylmethyl)-6-hydroxy-2,5-dimethylpyrazolo[1,5-a]pyrido[3,2-e]pyrimidine-7-carboxamide]
HIF1-α in Hep3B cells
  HIF-1α stabilisation (immunoblot): stabilise HIF-1α

## Cc1cc2nc(C)c3c(O)c(C(=O)NCc4ccc(C(F)(F)F)cc4)cnc3n2n1 [Compound 123, 6-Hydroxy-2,5-Dimethyl-N-(4-(trifluoromethyl)benzyl)pyrazolo[1,5-a]pyrido[3,2-e]pyrimidine-7-carboxamide]
HIF1-α in Hep3B cells
  HIF-1α stabilisation (immunoblot): stabilise HIF-1α

## O=C(O)CNC(=O)C1C(=O)N(C2CCCCC2)C(=O)N(C2CCCCC2)C1=O [Daprodustat]
[2]
  adverse effects: no adverse effects
